Test results reported in patent publication EP0103895A2, “Novel hydroxylamine derivatives, production and use thereof” (MEIJI SEIKA KABUSHIKI KAISHA, priority 1982, dated 1984).
Several values for one entry are separate records, joined by “and”; a condition that tells them apart may be missing. Identical values can stand only once. Like-named read-outs stand apart in the source and are kept apart here.

How the values were obtained:
[1] = test system: fowl roundworm (As. galli); experiment: Anthelmintic test in chickens artificially infected with fowl roundworm, compound added to feed, E.P.G. and worm count up to 21st day (Test Examples A2, B2, C2, D2); type: in vivo, Ascaridia galli; conditions: Ascaridia galli, 504 h, read-out: Anthelmintic effect; for inhibition in vivo at 25 ppm: 25 ppm in feed
[2] = test system: canine whipworm (Trichuris vulpis); experiment: Anthelmintic test in naturally infected dogs with mixed infections, E.P.G. on 7th day: canine whipworm (Test Examples A3, B3, C3, D3); type: in vivo; conditions: for anthelmintic effect: dogs with mixed infections (Trichuris vulpis, Ancylostoma caninum, Toxocara canis; statement covers all three), one administration of 20 mg/Kg
Procedure: (§1) Three dogs with mixed infections by canine whipworm (Trichuris vulpis), canine hookworm (Ancylostoma caninum) and canine roundworm (Toxocara canis) (naturally infected dogs) were employed in a group of two and a group of one.
(§2) The compound provided for the test was Compound No.Al, and 20 mg/Kg thereof was placed in a gelatin capsule per 1 Kg of body weight, and administered orally to the two dogs. As control, only a gelatin capsule was administered orally to the one dog.
(§3) Before administration and on the 7th day after administration, fecal matter testing was conducted to calculate the E.P.G., and the anthelmintic effect was judged by the changing of the E.P.G. to negative.
(§4) As control, only gelatin capsules were administered orally to the one dog.
(§5) The same method as in Test Example A3, but the compound provided for the test was Compound No. Cl. 30 mg/Kg of this compound was placed in a gelatin capsule per 1 Kg of body weight and administered orally to the two dogs. As control, only gelatin capsules were administered orally to the one dog.

[3] = test system: canine hookworm (Ancylostoma caninum); experiment: Anthelmintic test in naturally infected dogs with mixed infections, E.P.G. on 7th day: canine hookworm (Test Examples A3, B3, C3, D3); type: in vivo
Procedure: as §1, §2, §3, §4, §5

[4] = test system: canine roundworm (Toxocara canis); experiment: Anthelmintic test in naturally infected dogs with mixed infections, E.P.G. on 7th day: canine roundworm (Test Examples A3, B3, C3, D3); type: in vivo
Procedure: as §1, §2, §3, §4, §5

[5] = test system: canine strongyloides (Strongyloides stercoralis); experiment: Anthelmintic test against canine strongyloides in naturally infected dogs, E.P.G. on 7th day (Test Examples A4, B4, C4, D4); type: in vivo; conditions: dogs
Procedure: Three dogs infected with canine strongyloides (naturally infected dogs) were employed by grouping them into a group of two and a group of one.
As control, only a gelatin capsule was administered orally to the one dog.
as §3, §4, §4

[6] = test system: Trichostrongylidae (Trichostrongylus colubriformis); experiment: Anthelmintic test against sheep Trichostrongylidae in naturally infected sheep, E.P.G. on 7th day (Test Examples A7, B7, C7, D7); type: in vivo; conditions: for anthelmintic effect: one administration of 15 mg/Kg
Procedure: Two sheep infected with Trichostrongylidae (naturally infected sheep) were employed.
The compound provided for the test was Compound No. Al, 15 mg of which was placed in a gelatin capsule per 1 Kg of body weight and administered orally to one of the sheep. As a control, only gelatin capsules were administered orally to the other sheep.
as §3
As control, only gelatin capsules were administered orally to the other sheep.
As control, only gelatin capsule was administered orally to the other sheep.

[7] = test system: swine roundworm (Ascaris suum); experiment: Test of anthelmintic effect in naturally infected pigs, E.P.G. on 7th day: swine roundworm (Test Examples A9, B9, C9, D9); type: in vivo
Procedure: (§6) Six pigs infected with swine roundworm and swine whipworm (naturally infected pigs) were employed in groups each of two pigs.
(§7) As a control, only gelatin capsules were administered orally to the two pigs.
(§8) Before administration and on the 7th day after. administration, fecal matter testing was conducted to calculate the E.P.G., and the anthelmintic effect was judged by the changing of the E.P.G. to negative'.
(§9) 50 mg of each compound was placed in a gelatin capsule per 1 Kg of body weight and administered orally to each of the two pigs. As control, only gelatin capsules were administered orally to two pigs.
(§10) 30 mg of each compound was placed in a gelatin capsule per 1 Kg of body weight and administered orally to each of the two pigs. As control, only gelatin capsules were administered orally to two pigs.

[8] = test system: swine whipworm (Trichuris suis); experiment: Test of anthelmintic effect in naturally infected pigs, E.P.G. on 7th day: swine whipworm (Test Examples A9, B9, C9, D9); type: in vivo
Procedure: as §6, §7, §8, §9, §10

[9] = test system: canine filaria; Dirofilaria immitis; experiment: Test of anthelmintic effect against canine filaria in naturally infected dogs, subcutaneous injection, microfilaria in blood and adult filaria at autopsy (Test Examples A10, B10, C10, D10); type: in vivo; conditions: dogs
[10] = test system: Liver fluke; Fasciola hepatica (F. hepatica); experiment: Test of anthelmintic effect against rat infected experimentally with liver fluke (Test Examples A11, B11, C11, D11); type: in vivo; set-up: key to Presence or absence of fluke egg in fecal matter On 21st day after the last administration: +: indicates detection of fluke egg; -: indicates no detection
[11] = test system: fowl roundworm (Ascaridia galli); experiment: Anthelmintic test in chickens artificially infected with fowl roundworm, single oral dose in gelatin capsule, worm bodies counted within 48 hours (Test Examples A1, B1, C1, D1); type: in vivo; conditions: Ascaridia galli, po, 48 h, chicken, chickens No.1-3, read-out: Anthelmintic effect after 48 hours
How it was run: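 Anthelmintic percentage derived from counts of worms passed within 48 h plus worms left in the intestine after killing at 48 h. Infection confirmed by fecal examination in three-bird groups; compound given orally once in gelatin capsules at 10/20 (A1, B1), 30/50 (C1) or 15/30 (D1) mg/kg.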

[12] = test system: stomach worm (Haemonchus controtus); experiment: Anthelmintic test against cow stomach worm in naturally infected cows, E.P.G. on 7th day (Test Examples A6, B6, C6, D6); type: in vivo
Procedure: Three cows infected with stomach worm (naturally infected cows) were employed by grouping them into a group of two and a group of one.
(§11) As control, only gelatin capsules were administered orally to the one cow.
as §3, §11, §11

[13] = dogs, 20 mg/Kg orally once, baseline, one value per dog, 20 mg/kg
[14] = dogs, 20 mg/Kg orally once, one value per dog
[15] = 20 mg/Kg x 3 subcutaneously, autopsy on 10th day after the last administration, one value per dog, 20 mg/kg
[16] = feed or water, chicken, 50 ppm in feed
[17] = dog, 20 mg/Kg, one administration

## C#CCN(OC)C(C)=O [Compound A1, N-propargyl-N-acetyl-O-methylhydroxylamine]
[1]; po, chickens, 10 ppm added to feed, worm count on 21st day, one value per chicken
  inhibition in vivo at 10 ppm: 80 to 90%
[1]; po, chickens, 50 ppm added to feed, worm count on 21st day, one value per chicken
  inhibition in vivo at 50 ppm: 100%
[2]
  anthelmintic effect: marked anthelmintic effect
[2]; dogs, 20 mg/Kg orally once, Trichuris vulpis, baseline, one value per dog, 20 mg/kg
  Change of E.P.G. Before administration: 3,200 E.P.G. and 2,700 E.P.G.
[2]; dogs, 20 mg/Kg orally once, Trichuris vulpis, one value per dog
  Change of E.P.G. 7th day: 0 E.P.G.
[3]; [13]
  Change of E.P.G. Before administration: 4,500 E.P.G. and 7,800 E.P.G.
[3]; [14]
  Change of E.P.G. 7th day: 0 E.P.G.
[4]; [13]
  Change of E.P.G. Before administration: 5,100 E.P.G. and 2,300 E.P.G.
[4]; [14]
  Change of E.P.G. 7th day: 0 E.P.G.
[5]; one administration of 10 mg/Kg
  anthelmintic effect: marked anthelmintic effect
[5]; one administration of 20 mg/Kg
  anthelmintic effect: marked anthelmintic effect
[6]; 15 mg/Kg orally once
  Change of E.P.G. 7th day: 0 E.P.G.
[6]; 15 mg/Kg orally once, baseline
  Change of E.P.G. Before administration: 1,600 E.P.G.
[6]
  anthelmintic effect: marked anthelmintic effect
[7]; pigs infected with swine roundworm and swine whipworm (statement covers both), one administration of 20 mg/Kg
  anthelmintic effect: marked anthelmintic effect
[7]; pigs, 20 mg/Kg orally once, Ascaris suum, one value per pig
  Change of E.P.G. 7th day: 0 E.P.G.
[8]; pigs, 20 mg/Kg orally once, baseline, one value per pig, 20 mg/kg
  Change of E.P.G. Before administration: 1,300 E.P.G. and 2,100 E.P.G.
[8]; pigs, 20 mg/Kg orally once, one value per pig
  Change of E.P.G. 7th day: 0 E.P.G.
[9]; Dirofilaria immitis, sc, 240 h, administration of 20 mg/Kg repeated three times, given as about 50% or more, read-out: anthelmintic effect against adult filaria
  inhibition in vivo at 20 mg/kg: ≥ 50%
[9]; [15]
  Effect on adult filaria: Number of worms killed/Total parasites: 7/12 and 5/ 7
  Effect on adult filaria: Percent of worms killed: 58% and 71%
[9]; 20 mg/Kg x 3 subcutaneously, earlobe blood, one value per dog
  Number of microfilaria/20 µl On 10th day after the last administration: 0 /20 µl
[9]; administration of 20 mg/Kg repeated three times
  anthelmintic effect against microfilaria (mf): marked anthelmintic effect
[10]; rats, 50 mg/Kg x 5 orally, autopsy, liver, "Denatured" = fluke body is alive but a part of fluke body has changed, one value per rat
  Condition of fluke body: dead
[10]; rats, 50 mg/Kg x 5 orally, one value per rat
  Presence or absence of fluke egg in fecal matter On 21st day after the last administration: -

## C#CCNOCC=C.Cl [Compound D14, N-propargyl-O-allylhydroxylamine hydrochloride]
[1]; feed or water, chicken
  inhibition in vivo at 25 ppm: 80 to 90%
[1]; [16]
  inhibition in vivo at 50 ppm: 100%
[2]; dog, Trichuris vulpis, 20 mg/Kg, one administration
  Change of E.P.G. 7th day: 0
[2]
  anthelmintic effect: marked anthelmintic effect
[3]; [17]
  Change of E.P.G. 7th day: 0
[3]; dog, before 20 mg/Kg (baseline), hydrochloride
  Change of E.P.G. Before administration: 3,300 and 6,800
[4]; [17]
  Change of E.P.G. 7th day: 0
[10]; rat, 50 mg/Kg x 5
  Condition of fluke bodies: dead
  Presence or absence of fluke egg in fecal matter On 21st day after the last administration: -
[10]; rats, five administrations in a dose of 50 mg/Kg each
  anthelmintic effect: marked anthelmintic effect

## C=CCNOCC.Cl [Compound D1, N-allyl-O-ethylhydroxylamine hydrochloride]
[11]; 15 mg/Kg oral in gelatin capsule
  inhibition in vivo at 15 mg/kg: 80 to 90%
[11]; 30 mg/Kg oral in gelatin capsule
  inhibition in vivo at 30 mg/kg: 100%
[1]; feed or water, chicken
  inhibition in vivo at 25 ppm: 80 to 90%
[1]; [16]
  inhibition in vivo at 50 ppm: 100%
[12]; cow, Haemonchus controtus, 15 mg/Kg, one administration
  Change of E.P.G. 7th day: 0
[12]; cow, Haemonchus controtus, before 15 mg/Kg (baseline), hydrochloride
  Change of E.P.G. Before administration: 3,700 and 5,400
[12]; cows, one administration of 15 mg/Kg
  anthelmintic effect: marked anthelmintic effect
[6]; Trichostrongylus colubriformis, 15 mg/Kg, one administration
  Change of E.P.G. 7th day: 0
[6]; Trichostrongylus colubriformis, before 15 mg/Kg (baseline)
  Change of E.P.G. Before administration: 2,900
[6]
  anthelmintic effect: marked anthelmintic effect
[7]; pig, Ascaris suum, 20 mg/Kg, one administration
  Change of E.P.G. 7th day: 0
[7]; pig, Ascaris suum, before 20 mg/Kg (baseline), hydrochloride
  Change of E.P.G. Before administration: 2,700 and 3,100
[8]; pig, 20 mg/Kg, one administration
  Change of E.P.G. 7th day: 0
[8]; pig, before 20 mg/Kg (baseline), hydrochloride
  Change of E.P.G. Before administration: 6,600 and 4,200
